Like-named read-outs stand apart in the source and are kept apart here.
How the values were obtained:
CDK2/CycE = CDK2/CycE (Homo sapiens (Human), UniProt P24941); assay: CDK2/CycE kinase assay (Method 2); format: biochemical; settings: 10 μM ATP
[1] = target: human carbonic anhydrase-1 (Homo sapiens (Human), UniProt P00915); assay: Carbonic anhydrase assay, carbonic anhydrase-1 (Method 4); format: biochemical; settings: read-out: Inhibition of Carbonic anhydrase-1 IC50
Description: (§1) 4. Carbonic Anhydrase Assay
(§2) 2 μL of the test compounds, dissolved in DMSO (100-fold final concentration), in a concentration range of 0.03-10 μmol/L (final), was pipetted as quadruplicates into the wells of a 96-hole microtiter plate. Wells that contained the solvent without test compounds were used as reference values (1. Wells without carbonic anhydrase for correction of the non-enzymatic hydrolysis of the substrate, and 2. Wells with carbonic anhydrase for determining the activity of the non-inhibited enzyme).
(§3) 188 μL of assay buffer (10 mmol/L of Tris/HCl, pH 7.4, 80 mmol/L of NaCl), with or without 3 units/well of carbonic anhydrase-1 [=human carbonic anhydrase-1 (Sigma, #C4396)] in order to determine carbonic anhydrase-1 inhibition or 3 units/well of carbonic anhydrase-2 [=human carbonic anhydrase-2 (Sigma, #C6165)] for measuring carbonic anhydrase-2 inhibition, was pipetted into the wells of the microtiter plate.

[2] = target: human carbonic anhydrase-2 (Homo sapiens (Human), UniProt P00918); assay: Carbonic anhydrase assay, carbonic anhydrase-2 (Method 4); format: biochemical; settings: read-out: Inhibition of Carbonic anhydrase-2 IC50
Description: as §1
The principle of the assay is based on the hydrolysis of 4-nitrophenyl acetate by carbonic anhydrases (Pocker & Stone, Biochemistry, 1967, 6, 668), with subsequent photometric determination of the dye product 4-nitrophenolate at 400 nm by means of a 96-channel spectral photometer.
as §2, §3

[3] = test system: NCI-H460, human non-small cell lung carcinoma cells; assay: Proliferation assay, NCI-H460 (Method 3); format: cell-based; settings: NCI-H460, 4 days, crystal violet, read-out: Inhibition of H460 cell proliferation IC50
Description: (§4) After 24 hours, the cells of one plate (zero-point plate) were stained with crystal violet (see below), while the medium of the other plates was replaced by fresh culture medium (200 μl), to which the test substances were added in various concentrations (0 μM, as well as in the range of 0.001-10 μM; the final concentration of the solvent dimethyl sulfoxide was 0.5%). The cells were incubated for 4 days in the presence of test substances. Cell proliferation was determined by staining the cells with crystal violet: the cells were fixed by adding 20 μl/measuring point of an 11% glutaric aldehyde solution for 15 minutes at room temperature. After three washing cycles of the fixed cells with water, the plates were dried at room temperature. The cells were stained by adding 100 μl/measuring point of a 0.1% crystal violet solution (pH 3.0). After three washing cycles of the stained cells with water, the plates were dried at room temperature. The dye was dissolved by adding 100 μl/measuring point of a 10% acetic acid solution. The extinction was determined by photometry at a wavelength of 595 nm. The change of cell number, in percent, was calculated by normalization of the measured values to the extinction values of the zero-point plate (=0%) and the extinction of the untreated (0 μm) cells (=100%).

[4] = test system: DU 145, hormone-independent human prostate carcinoma cells; assay: Proliferation assay, DU 145 (Method 3); format: cell-based; settings: DU145, 4 days, crystal violet, read-out: Inhibition of DU145 cell proliferation IC50
Description: as §4

[5] = test system: Caco-2, human colorectal carcinoma cells; assay: Proliferation assay, Caco-2 (Method 3); format: cell-based; settings: Caco-2, 4 days, crystal violet, read-out: Inhibition of Caco-2 cell proliferation IC50
Description: as §4

[6] = test system: HeLa-MaTu-ADR, multidrug-resistant human cervical carcinoma cells; assay: Proliferation assay, HeLa-MaTu-ADR (Method 3); format: cell-based; settings: 4 days, crystal violet, read-out: Inhibition of HeLa-MaTu-ADR cell proliferation IC50
Description: as §4

[7] = test system: B16F10, mouse melanoma cells; assay: Proliferation assay, B16F10 (Method 3); format: cell-based; settings: B16F10, 4 days, crystal violet, read-out: Inhibition of B16F10 cell proliferation IC50
Description: as §4

[8] = test system: HeLa, human cervical tumour cells; assay: Proliferation assay, HeLa (Method 3); format: cell-based; settings: 4 days, crystal violet, read-out: Inhibition of HeLa cell proliferation IC50
In short: (§5)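 Cells grew 24 h, then were exposed to compound at 0.001–10 μM (0.5% final DMSO) for 4 days. Proliferation was read by crystal violet staining after glutaraldehyde fixation, with absorbance at 595 nm. Values were normalized to a zero-point plate (0%) and untreated cells (100%).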

[9] = test system: A2780, human ovarian carcinoma cells; assay: Proliferation assay, A2780 (Method 3); format: cell-based; settings: A2780, 4 days, crystal violet; read-out: Inhibition of A2780 cell proliferation IC50
In short: as §5

[10] = test system: MOLM-13 human acute myeloid leukemia cells; assay: Proliferation assay, MOLM-13 (Cell Titre-Glo, Method 3); format: cell-based; settings: MOLM-13, 72-hour exposure, read-out: Inhibition of MOLM-13 cell proliferation IC50
Description: Non-adherent MOLM-13 human acute myeloid leukemia cells (DSMZ ACC 554) were seeded at a density of 5,000 cells/well in a 96-well multititer plate in 100 μL of growth medium supplemented 10% fetal calf serum. After 24 hours, cell viability of one plate (zero-point plate) was determined with the Cell Titre-Glo Luminescent Cell Viability Assay (Promega), while 50 μL of test compound containing medium was added to the wells of the other plates (final concentrations in the range of 0.001-10 μM and DMSO controls; the final concentration of the solvent dimethyl sulfoxide was 0.5%). Cell viability was assessed after 72-hour exposure with the Cell Titre-Glo Luminescent Cell Viability Assay (Promega).

CDK9/CycT1 [11] = target: T1, CDK9/CycT1 (Homo sapiens (Human), UniProt P50750); assay: CDK9/CycT1 kinase assay (Method 1a); format: biochemical; settings: 10 μM ATP
CDK9/CycT1 [12] = target: T1, CDK9/CycT1; assay: CDK9/CycT1 high ATP kinase assay (Method 1b); format: biochemical; settings: 2 mM ATP
In short: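 Full-length His-tagged human CDK9/CycT1 (insect cells, ~0.5 μg/ml) pre-incubated 15 min at 22 °C with compound in Tris pH 8.0/MgCl2/DTT buffer; biotinylated peptide substrate, high ATP. After detection reagents, 1 h at 22 °C; TR-FRET 665/620 nm emission ratio (350 nm excitation) measured phosphorylation.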

[13] = In vitro metabolic stability in rat hepatocytes (Method 5); format: in vitro ADME, Han Wistar rat; settings: 1 μM test compound
Description: 5. Investigation of In Vitro Metabolic Stability in Rat Hepatocytes
Hepatocytes from Han Wistar rats were isolated via a 2-step perfusion method. After perfusion, the liver was carefully removed from the rat: the liver capsule was opened and the hepatocytes were gently shaken out into a Petri dish with ice-cold Williams medium E (purchased from Sigma Aldrich Life Science, St Louis, Mo.). The resulting cell suspension was filtered through sterile gaze in 50 ml falcon tubes and centrifuged at 50×g for 3 min at room temperature. The cell pellet was resuspended in 30 ml WME and centrifuged through a Percoll® gradient for 2 times at 100×g. The hepatocytes were washed again with Williams' medium E (WMA) and resuspended in medium containing 5% Fetal calf serum (FCS, purchased from Invitrogen, Auckland, NZ). Cell viability was determined by trypan blue exclusion.
For the metabolic stability assay liver cells were distributed in WME containing 5% FCS to glass vials at a density of 1.0×10^6 vital cells/ml. The test compound was added to a final concentration of 1 μM. During incubation, the hepatocyte suspensions were continuously shaken and aliquots were taken at 2, 8, 16, 30, 45 and 90 min, to which equal volumes of cold acetonitrile were immediately added. Samples were frozen at −20° C. over night, after subsequently centrifuged for 15 minutes at 3000 rpm and the supernatant was analyzed with an Agilent 1200 HPLC-system with LCMS/MS detection.
The half-life of a test compound was determined from the concentration-time plot. From the half-life the intrinsic clearances were calculated. Together with the additional parameters liver blood flow, amount of liver cells in vivo and in vitro.

T1 sequence (P50750 whole entry): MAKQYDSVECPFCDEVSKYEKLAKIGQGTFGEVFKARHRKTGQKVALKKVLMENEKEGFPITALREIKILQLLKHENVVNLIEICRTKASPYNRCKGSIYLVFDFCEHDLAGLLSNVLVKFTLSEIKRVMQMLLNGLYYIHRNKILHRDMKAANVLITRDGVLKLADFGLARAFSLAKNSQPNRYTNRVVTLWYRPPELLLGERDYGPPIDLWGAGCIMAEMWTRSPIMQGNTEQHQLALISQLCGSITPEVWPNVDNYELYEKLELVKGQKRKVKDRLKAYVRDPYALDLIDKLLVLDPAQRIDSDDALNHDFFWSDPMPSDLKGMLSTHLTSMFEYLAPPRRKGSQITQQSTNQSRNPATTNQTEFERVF
T1 sequence (O60563 whole entry partner): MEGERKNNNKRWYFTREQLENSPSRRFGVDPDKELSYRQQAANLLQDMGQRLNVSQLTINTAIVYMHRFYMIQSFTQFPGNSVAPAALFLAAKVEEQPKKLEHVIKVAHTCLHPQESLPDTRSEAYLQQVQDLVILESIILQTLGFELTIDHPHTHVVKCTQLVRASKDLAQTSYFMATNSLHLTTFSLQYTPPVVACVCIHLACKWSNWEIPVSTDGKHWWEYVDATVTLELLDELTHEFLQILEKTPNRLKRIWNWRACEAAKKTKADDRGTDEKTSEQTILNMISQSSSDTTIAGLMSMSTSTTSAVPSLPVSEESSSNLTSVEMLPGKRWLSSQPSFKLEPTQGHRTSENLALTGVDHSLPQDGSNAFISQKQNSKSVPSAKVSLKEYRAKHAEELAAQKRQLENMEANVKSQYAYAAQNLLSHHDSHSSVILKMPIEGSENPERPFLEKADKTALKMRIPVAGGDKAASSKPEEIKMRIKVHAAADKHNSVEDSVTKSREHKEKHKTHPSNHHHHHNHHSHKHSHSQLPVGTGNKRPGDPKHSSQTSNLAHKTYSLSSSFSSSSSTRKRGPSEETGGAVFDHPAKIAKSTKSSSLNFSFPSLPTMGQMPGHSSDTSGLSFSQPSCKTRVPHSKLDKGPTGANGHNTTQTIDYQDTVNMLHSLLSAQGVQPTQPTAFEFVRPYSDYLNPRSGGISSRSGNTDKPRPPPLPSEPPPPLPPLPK
Sequence of human carbonic anhydrase-1 (P00915 whole entry): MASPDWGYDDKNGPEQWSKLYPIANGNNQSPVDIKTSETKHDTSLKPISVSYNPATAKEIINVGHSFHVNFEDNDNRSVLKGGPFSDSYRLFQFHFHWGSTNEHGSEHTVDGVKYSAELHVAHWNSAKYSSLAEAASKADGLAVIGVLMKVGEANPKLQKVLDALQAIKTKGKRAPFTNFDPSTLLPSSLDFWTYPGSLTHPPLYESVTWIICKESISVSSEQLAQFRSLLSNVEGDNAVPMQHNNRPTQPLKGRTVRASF

IC50 (CDK2/CycE) | IC50 [1] | IC50 [2] | IC50 ([3]; Homo sapiens, NCI-H460, 96 h) | IC50 ([4]; Homo sapiens, DU-145, 96 h) | IC50 ([5]; Homo sapiens, Caco-2, 96 h) | IC50 ([6]; Homo sapiens, 96 h) | IC50 ([7]; Mus musculus, B16-F10, 96 h) | IC50 ([8]; Homo sapiens, 96 h) | IC50 [9] | IC50 [10] | IC50 [3] | IC50 [4] | IC50 [5] | IC50 (CDK9/CycT1 [11]) | IC50 [6] | IC50 (CDK9/CycT1 [12]) | IC50 [7] | maximal calculated oral bioavailability (Fmax) based on stability data in rat Hepatocytes [13] | IC50 [8] | Compound
470 nM | > 10000 nM | > 10000 nM |  |  |  |  |  |  |  |  |  |  |  |  |  |  |  |  |  | CS(=O)(Cc1cc(Br)cc(Nc2ncc(F)c(-c3ccc(F)cc3F)n2)c1)=NC#N (racemic) [Example 18, (rac)-[(3-Bromo-5-{[4-(2,4-difluorophenyl)-5-fluoropyrimidin-2-yl]amino}benzyl)(methyl)oxido-λ^6-sulfanylidene]cyanamide]
230 nM |  |  | 384 nM | 340 nM | 344 nM | 330 nM | 321 nM | 320 nM |  |  |  |  |  |  |  |  |  |  |  | COc1cc(CS(C)(=O)=NC#N)cc(Nc2ncc(F)c(-c3ccc(F)cc3F)n2)c1 (racemic) [Example 20, (rac)-[(3-{[4-(2,4-Difluorophenyl)-5-fluoropyrimidin-2-yl]amino}-5-methoxybenzyl)(methyl)oxido-λ^6-sulfanylidene]cyanamide]
 |  |  |  |  |  |  |  |  | 99 nM | 39 nM | 317 nM | 142 nM | 202 nM | 4 nM | 134 nM | 11 nM | 323 nM | 90% | 172 nM | CS(=O)(Cc1cc(Nc2ncc(F)c(-c3ccc(F)cc3F)n2)cc(S(F)(F)(F)(F)F)c1)=NC(N)=O (single isomer, unassigned) [Example 34, 1-{[3-{[4-(2,4-Difluorophenyl)-5-fluoropyrimidin-2-yl]amino}-5-(pentafluoro-λ^6-sulfanyl)benzyl](methyl)oxido-λ^6-sulfanylidene}urea]
